Measurements published in PubChem BioAssay (NCI).
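Growth conditions: 96-well plates. Treatment: test compound, 48 hours, 5 concentrations. Analysis: linear interpolation between bracketing concentrations; unreached endpoints set to highest concentration. TGI is the concentration that stops growth completely.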

Key:
Test in all cases: growth of human tumour cells (NCI), 48 h
HL-60(TB) leukemia = system: HL-60(TB) leukemia
HOP-92 NSCLC = system: HOP-92 NSCLC
HT29 colon = system: HT29 colon
MOLT-4 leukemia = system: MOLT-4 leukemia
NCI-H226 lung = system: NCI-H226 lung
OVCAR-3 ovarian = system: OVCAR-3 ovarian
OVCAR-8 ovarian = system: OVCAR-8 ovarian
RPMI-8226 leukemia = system: RPMI-8226 leukemia
SK-MEL-5 melanoma = system: SK-MEL-5 melanoma
SK-OV-3 ovarian = system: SK-OV-3 ovarian
SW-620 colon = system: SW-620 colon
U251 CNS = system: U251 CNS
MDA-N = system: MDA-N
T-47D breast = system: T-47D breast

SMILES | TGI (HL-60(TB) leukemia) [µM] | TGI (HOP-92 NSCLC) [µM] | TGI (HT29 colon) [µM] | TGI (MOLT-4 leukemia) [µM] | TGI (NCI-H226 lung) [µM] | TGI (OVCAR-3 ovarian) [µM] | TGI (OVCAR-8 ovarian) [µM] | TGI (RPMI-8226 leukemia) [µM] | TGI (SK-MEL-5 melanoma) [µM] | TGI (SK-OV-3 ovarian) [µM] | TGI (SW-620 colon) [µM] | TGI (U251 CNS) [µM] | TGI (MDA-N) [µM] | TGI (T-47D breast) [µM]
O=c1[nH]cc(COCC(O)CO)c(=O)[nH]1 (stereo unspecified) | > 100 | > 100 | > 100 | > 100 | > 100 | > 100 | > 100 | > 100 | > 100 | > 100 | > 100 | > 100 |  | 
COc1ccc2cc(/C=N\NC(=O)Nc3ccc([N+](=O)[O-])cc3)ccc2c1 | 30.7 | 32.4 | 16.1 | 21.8 |  | 44.1 | 16.9 | 29.1 | 17.7 | 18.5 | > 31.6 | 26.6 | 18.5 | 19.5
O=C(/C=N/O)Nc1ccc(Cl)c(I)c1 | 54.1 |  | > 100 | 56.5 | 17.8 | 60.3 | > 100 | 77.8 | 35.2 | 56 | > 100 | 39.4 |  | 
COC1=CC(=O)c2c(n[nH]c2CCNC(=O)OCc2ccccc2)C1=O | 41.9 |  | 40.8 | 51.4 |  | 32.2 | 44.3 | 39.1 | 13 |  | 36.8 | 26 | 4.61 | 18.3
O=[N+]([O-])c1cc(Cl)ccc1S(=O)(=O)c1ccc(Cl)cc1[N+](=O)[O-] | 58 | 32.6 | 30.9 | 84.4 | 25.1 | 31.1 | 29.5 | > 100 | 27.7 | 29.4 | 32.6 | 34.5 |  | 
O=[N+]([O-])c1cc2ccc1OCc1cccc(n1)COc1ccc(cc1[N+](=O)[O-])C=NCCCCCCCCN=C2 |  | > 100 | > 100 | > 100 | > 100 | > 100 | > 100 | > 100 | > 100 |  | > 100 | > 100 | > 100 | 
CC1CN=C(NS(=O)(=O)c2cc(C(=O)Nc3ccccc3)c(Cl)cc2S)NN1 (stereo unspecified) | > 100 |  | > 100 | > 100 | > 100 | > 100 | > 100 | > 100 | > 100 | > 100 | > 100 | > 100 | 71.5 | 
O=C1COc2cc3c(cc2N1)SCCC(=O)N3 | > 100 | > 100 | > 100 | > 100 | > 100 | > 100 | > 100 | > 100 | > 100 | > 100 | > 100 |  |  | 
Cn1c(-c2cccs2)cc(-c2ccsc2)c1-c1cccs1 |  | > 100 | > 100 | > 100 | > 100 | > 100 | > 100 |  |  | > 100 | > 100 | > 100 | > 100 | 73.2
O=C1Nc2ccccc2/C1=N/N1C(=O)/C(=C/c2ccccc2S)N=C1c1ccccc1 | > 100 | > 100 | > 100 | > 100 |  | > 100 | > 100 | > 100 | > 100 | > 100 | > 100 | > 100 | > 100 | 81.8
CCOC(=O)CNC(=O)CNC(=O)CNC(=O)CNNc1c(OCc2ccccc2)c(=O)c1=O |  |  | > 100 | > 100 | > 100 | > 100 | > 100 | > 100 | > 100 | > 100 | > 100 | > 100 | > 100 | > 100
OCCSCC/C(=N\N=C(/CCSCCO)c1ccccc1)c1ccccc1 | > 100 | > 100 | > 100 | > 100 | > 100 | > 100 | > 100 | > 100 | > 100 | > 100 | > 100 | > 100 |  | 
O=C(Nc1ccccc1[N+](=O)[O-])C(=O)C(C(=O)c1ccccc1-c1ccccc1)C1OC(=O)c2ccccc21 (stereo unspecified) | 47.6 |  | 59.2 | 85.4 | 21.3 | 28 | 44.1 | 78.3 | 32.7 | > 100 | 36.7 | 24.2 |  | 
O=C1/C(=C/c2ccc(OC(=O)c3ccc(Cl)cc3)cc2)CCC/C1=C\c1ccc(OC(=O)c2ccc(Cl)cc2)cc1 | > 100 | > 100 | > 100 | > 100 |  | > 100 | > 100 | > 100 | > 100 |  | > 100 | > 100 | > 100 | > 100
CC(C)(C)OC(=O)NC(Cc1ccc(OCc2ccccc2)cn1)C(N)=O (stereo unspecified) | > 100 | > 100 | > 100 |  | > 100 | > 100 | > 100 | > 100 | 94.2 |  | > 100 | > 100 | > 100 | 
Cn1nc(S(N)(=O)=O)s/c1=N/S(=O)(=O)c1ccc(N)cc1 |  | > 100 | > 100 | > 100 | > 100 | > 100 | > 100 | > 100 |  | > 100 | > 100 | > 100 |  | 
COc1ccc(-c2cc(=O)c3ccc(F)cc3[nH]2)cc1 | > 100 | > 100 | > 100 | > 100 | > 100 | > 100 | > 100 | > 100 | > 100 | > 100 | > 100 |  |  | 
C/C(=C(/C)c1cc[n+](C)cc1)c1cc[n+](C)cc1 | > 75 | > 75 | > 75 | > 75 |  | > 75 | > 75 | > 75 | > 75 | > 75 |  | > 75 |  | 
